pIC50, pKi: −log10 of the molar value. Active and inactive are the calls of the source. The rule behind the calls is not given here.
Assays:
[1] = biological target: T1, Prostaglandin D2 receptor 2 (Homo sapiens, UniProt Q9Y5Y4); assay: Displacement of [3HPGD2 from human CRTH2 receptor expressed in CHO cell membrane after 90 mins by scintillation proximity assay; assay type: cell membranes
T1 sequence (Q9Y5Y4 whole entry): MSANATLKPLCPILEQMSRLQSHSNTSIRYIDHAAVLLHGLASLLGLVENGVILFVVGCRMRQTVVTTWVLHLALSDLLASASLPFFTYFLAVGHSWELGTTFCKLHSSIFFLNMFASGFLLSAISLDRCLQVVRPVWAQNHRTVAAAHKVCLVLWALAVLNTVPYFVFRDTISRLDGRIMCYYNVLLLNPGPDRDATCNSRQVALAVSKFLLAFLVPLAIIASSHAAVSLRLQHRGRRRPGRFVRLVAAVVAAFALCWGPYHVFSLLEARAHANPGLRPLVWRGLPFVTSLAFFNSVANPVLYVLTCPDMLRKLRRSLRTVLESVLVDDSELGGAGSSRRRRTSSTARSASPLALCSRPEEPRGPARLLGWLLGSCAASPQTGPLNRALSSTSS

[2] = biological target: Cytochrome P450 2C19 (Homo sapiens, UniProt P33261); assay: Inhibition of human recombinant CYP2C19 incubated for 15 mins prior to substrate addition measured after 30 mins by spectrophotometry; assay type: ADME
[3] = biological target: Cytochrome P450 2C9 (Homo sapiens, UniProt P11712); assay: Inhibition of human recombinant CYP2C9 incubated for 15 mins prior to substrate addition measured after 30 mins by spectrophotometry; assay type: ADME
[4] = Intrinsic clearance in rat liver microsomes assessed per mg protein at 1 uM up to 45 mins by LC/MS analysis; assay type: ADME, Microsome; conditions: read-out: CLH
[5] = biological target: T2, Cytochrome P450 2C8 (Homo sapiens, UniProt P10632); assay: Inhibition of human recombinant CYP2C8 incubated for 15 mins prior to substrate addition measured after 30 mins by spectrophotometry; assay type: ADME
T2 sequence (P10632 whole entry): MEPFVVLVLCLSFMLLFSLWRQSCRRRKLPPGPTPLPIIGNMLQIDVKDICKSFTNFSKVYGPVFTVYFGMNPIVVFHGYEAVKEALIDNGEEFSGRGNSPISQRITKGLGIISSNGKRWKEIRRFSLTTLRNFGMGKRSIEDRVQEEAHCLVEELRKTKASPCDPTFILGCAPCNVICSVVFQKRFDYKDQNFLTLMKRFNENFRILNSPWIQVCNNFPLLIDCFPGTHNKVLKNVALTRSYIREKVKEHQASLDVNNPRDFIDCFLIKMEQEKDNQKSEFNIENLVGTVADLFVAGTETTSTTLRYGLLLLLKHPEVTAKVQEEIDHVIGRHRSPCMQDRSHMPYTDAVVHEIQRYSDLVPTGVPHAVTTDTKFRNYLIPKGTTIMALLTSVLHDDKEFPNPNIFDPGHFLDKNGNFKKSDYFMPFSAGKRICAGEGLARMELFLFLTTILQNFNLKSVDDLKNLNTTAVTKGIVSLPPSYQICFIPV

[6] = Intrinsic clearance in human liver microsomes assessed per mg protein at 1 uM up to 45 mins by LC/MS analysis; assay type: ADME, Microsome; conditions: read-out: CLH
[7] = biological target: T3, Prostaglandin D2 receptor 2 (Homo sapiens) (UniProt Q9Y5Y4); assay: Antagonist activity at human CRTH2 receptor expressed in CHO cell membrane assessed as inhibition of PGD2-induced [35S]GTPgammaS binding at 2 uM after 30 mins by microbeta scintillation counting relative to control; assay type: functional, cell membranes
T3 sequence (whole entry): T1 sequence (Q9Y5Y4 whole entry)

[8] = biological target: T1, Prostaglandin D2 receptor 2; assay: Antagonist activity at human CRTH2 receptor expressed in CHO cell membrane assessed as inhibition of PGD2-induced [35S]GTPgammaS binding after 30 mins by microbeta scintillation counting; assay type: functional, cell membranes
[9] = biological target: T3, Prostaglandin D2 receptor 2 (Homo sapiens); assay: Agonist activity at human CRTH2 receptor expressed in CHO cell membrane assessed as induction of [35S]GTPgammaS binding at 20 uM after 30 mins by microbeta scintillation counting relative to PGD2; assay type: functional, cell membranes

Sequence of Cytochrome P450 2C9 (P11712 whole entry): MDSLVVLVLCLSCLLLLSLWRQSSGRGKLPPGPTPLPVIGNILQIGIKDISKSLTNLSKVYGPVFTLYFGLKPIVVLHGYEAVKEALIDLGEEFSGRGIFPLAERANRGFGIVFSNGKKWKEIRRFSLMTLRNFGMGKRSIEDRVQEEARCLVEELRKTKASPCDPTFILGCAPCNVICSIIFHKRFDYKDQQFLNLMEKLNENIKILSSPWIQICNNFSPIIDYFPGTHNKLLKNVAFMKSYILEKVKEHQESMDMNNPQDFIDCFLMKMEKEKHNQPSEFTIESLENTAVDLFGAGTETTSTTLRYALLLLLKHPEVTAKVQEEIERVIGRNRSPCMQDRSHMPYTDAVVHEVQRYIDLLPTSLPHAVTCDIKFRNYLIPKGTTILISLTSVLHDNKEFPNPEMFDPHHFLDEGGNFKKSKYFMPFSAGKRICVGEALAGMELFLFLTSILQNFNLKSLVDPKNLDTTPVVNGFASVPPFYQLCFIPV
Sequence of Cytochrome P450 2C19 (P33261 whole entry): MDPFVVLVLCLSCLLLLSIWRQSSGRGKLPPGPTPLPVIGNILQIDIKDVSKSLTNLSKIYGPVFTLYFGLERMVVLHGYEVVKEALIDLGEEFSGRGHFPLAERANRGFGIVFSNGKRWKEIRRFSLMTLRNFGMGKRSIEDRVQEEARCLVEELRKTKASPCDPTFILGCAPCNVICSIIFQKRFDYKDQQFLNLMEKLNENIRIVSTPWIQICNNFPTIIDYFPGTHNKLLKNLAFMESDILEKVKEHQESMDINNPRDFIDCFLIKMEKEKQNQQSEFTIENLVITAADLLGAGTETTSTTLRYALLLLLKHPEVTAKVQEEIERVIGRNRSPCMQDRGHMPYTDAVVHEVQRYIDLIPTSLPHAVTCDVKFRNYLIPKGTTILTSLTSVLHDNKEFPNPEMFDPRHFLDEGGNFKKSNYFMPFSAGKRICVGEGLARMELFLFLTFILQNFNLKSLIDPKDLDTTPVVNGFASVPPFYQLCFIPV

## CCCCC(=O)N(Cc1cccc(OC)c1)c1cccc(-c2nnn[nH]2)c1
[1]
  pKi: 7.36

## CCC(=O)N(Cc1ccc2c(c1)OCCO2)c1cc(-c2nnn[nH]2)ccc1F
[1]
  pKi: 7.96

## CCC(=O)N(Cc1ccc2c(c1)OCO2)c1cccc(-c2nnn[nH]2)c1
[1]
  pKi: 6.89

## CCCCC(=O)N(Cc1ccc2c(c1)OCCO2)c1cccc(-c2nnn[nH]2)c1
[2]
  pIC50: 6.17
[3]
  pIC50: 6.19
[4]
  microsomal CLint at 1 µM: 125 µL/min/mg
[1]
  pKi: 8.15
[5]
  pIC50: 6.24
[6]
  microsomal CLint at 1 µM: > 1000 µL/min/mg

## CCCCC(=O)N(Cc1ccc2c(c1)OCCO2)c1cc(-c2nnn[nH]2)ccc1F
[1]
  pKi: 8.48

## CCC(=O)N(Cc1ccc2ccccc2n1)c1cc(F)cc(-c2nnn[nH]2)c1
[1]
  pKi: 7.25

## CCCCC(=O)N(Cc1ccc2c(c1)OCCO2)c1cc(F)cc(-c2nnn[nH]2)c1
[7]
  inhibition: 102%
[8]
  pIC50: 8.55
[1]
  pKi: 8.70
[9]
  Emax: -15%

## CCCCC(=O)N(Cc1ccc2ccccc2c1)c1cc(-c2nnn[nH]2)ccc1F
[1]
  pKi: 7.74

## CCC(=O)N(Cc1ccc(OC)cc1)c1cc(F)cc(-c2nnn[nH]2)c1
[1]
  pKi: 8.12

## CCCC(=O)N(Cc1ccc2c(c1)OCCO2)c1cccc(-c2nnn[nH]2)c1
[1]
  pKi: 7.92

## CCCCC(=O)N(Cc1ccc(OC)cc1)c1cccc(-c2nnn[nH]2)c1
[2]
  pIC50: 6.59
[3]
  pIC50: 6.08
[4]
  microsomal CLint at 1 µM: 43 µL/min/mg
[1]
  pKi: 7.30
[5]
  pIC50: 6.49
[6]
  microsomal CLint at 1 µM: > 1000 µL/min/mg

## CC(C)C(=O)N(Cc1ccc(S(C)(=O)=O)cc1)c1cc(F)cc(-c2nnn[nH]2)c1
[1]
  pKi: 7.77

## CS(=O)(=O)c1ccc(CN(C(=O)C2CCCC2)c2cc(F)cc(-c3nnn[nH]3)c2)cc1
[7]
  inhibition: 80%
[2]
  pIC50: 4.92
[3]
  pIC50: 5.13
[4]
  microsomal CLint at 1 µM: 40 µL/min/mg
[8]
  pIC50: 7.24
[1]
  pKi: 8.27
[5]
  pIC50: 6.66
[6]
  microsomal CLint at 1 µM: 92 µL/min/mg
[9]
  Emax: 7%

## CCC(=O)N(Cc1cccc(OC)c1)c1cc(F)cc(-c2nnn[nH]2)c1
[7]
  inhibition: 107%
[8]
  pIC50: 7.19
[1]
  pKi: 8.09
[9]
  Emax: -11%

## CCC(=O)N(Cc1ccc(OC)cc1)c1cccc(-c2nnn[nH]2)c1
[1]
  pKi: 6.66

## CCC(=O)N(Cc1cccc(C)c1)c1cccc(-c2nnn[nH]2)c1
[1]
  pKi: 6.24

## CCC(=O)N(Cc1ccc(S(C)(=O)=O)cc1)c1cc(F)cc(-c2nnn[nH]2)c1
[2]
  pIC50: 6.82
[3]
  pIC50: < 4.70
[4]
  microsomal CLint at 1 µM: < 10 µL/min/mg
[1]
  pKi: 8.51
[5]
  pIC50: 7.27
[6]
  microsomal CLint at 1 µM: < 10 µL/min/mg

## CCCCC(=O)N(Cc1ccc2cnccc2c1)c1cccc(-c2nnn[nH]2)c1
[1]
  pKi: 6.48

## CCCCC(=O)N(Cc1cc2ccccc2o1)c1cc(-c2nnn[nH]2)ccc1F
[1]
  pKi: 8.15

## CCC(=O)N(Cc1ccc(O)cc1)c1cc(F)cc(-c2nnn[nH]2)c1
[1]
  pKi: 7.66

## CCCCC(=O)N(Cc1ccc(OC)cc1)c1cc(F)cc(-c2nnn[nH]2)c1
[1]
  pKi: 8.52

## CS(=O)(=O)c1ccc(CN(C(=O)c2ccccc2)c2cc(F)cc(-c3nnn[nH]3)c2)cc1
[1]
  pKi: 8.66

## CCC(=O)N(Cc1ccccc1)c1cccc(-c2nnn[nH]2)c1
[1]
  pKi: 5.74

## C#Cc1cccc(CN(C(C)=O)c2cc(-c3nnn[nH]3)ccc2F)c1
[1]
  pKi: 6.85

## CC(C)CC(=O)N(Cc1ccc2c(c1)OCCO2)c1cc(-c2nnn[nH]2)ccc1F
[1]
  pKi: 8.25

## CCCCC(=O)N(Cc1ccc(OC)cc1)c1cc(Cl)cc(-c2nnn[nH]2)c1
[7]
  inhibition: 110%
[8]
  pIC50: 8.00
[1]
  pKi: 8.44
[9]
  Emax: -10%

## CCCCC(=O)N(Cc1ccc2c(c1)OCCO2)c1cc(-c2nnn[nH]2)c(F)cc1F
[1]
  pKi: 7.35

## CCC(=O)N(Cc1cccc(OC(C)C)c1)c1cc(F)cc(-c2nnn[nH]2)c1
[2]
  pIC50: 6.05
[3]
  pIC50: 6.47
[4]
  microsomal CLint at 1 µM: 30 µL/min/mg
[1]
  pKi: 8.19
[5]
  pIC50: 6.33
[6]
  microsomal CLint at 1 µM: 1700 µL/min/mg

## CCC(=O)N(Cc1cccc(F)c1)c1cccc(-c2nnn[nH]2)c1
[1]
  pKi: 5.85

## CS(=O)(=O)c1ccc(CN(C(=O)Cc2ccccc2)c2cc(F)cc(-c3nnn[nH]3)c2)cc1
[7]
  inhibition: 94%
[2]
  pIC50: 6.77
[3]
  pIC50: 6.54
[4]
  microsomal CLint at 1 µM: 20 µL/min/mg
[8]
  pIC50: 8.43
[1]
  pKi: 9.05
[5]
  pIC50: 7.30
[6]
  microsomal CLint at 1 µM: 28 µL/min/mg
[9]
  Emax: -10%

## CS(=O)(=O)c1ccc(CN(C(=O)C2CCOCC2)c2cc(F)cc(-c3nnn[nH]3)c2)cc1
[1]
  pKi: 7.55

## CCCCC(=O)N(Cc1ccc2ccccc2c1)c1cccc(-c2nnn[nH]2)c1
[1]
  pKi: 7.41

## CCC(=O)N(Cc1ccc(S(C)(=O)=O)cc1)c1cccc(-c2nnn[nH]2)c1
[1]
  pKi: 7.16

## CCCCC(=O)N(Cc1cccs1)c1cccc(-c2nnn[nH]2)c1
[1]
  pKi: 6.21

## CCC(=O)N(Cc1ccccc1F)c1cccc(-c2nnn[nH]2)c1
[1]
  pKi: 6.02

## Cc1ccc(CCC(=O)N(Cc2ccc(S(C)(=O)=O)cc2)c2cc(F)cc(-c3nnn[nH]3)c2)cc1
[1]
  pKi: 8.60

## CS(=O)(=O)c1ccc(CN(C(=O)c2cccnc2)c2cc(F)cc(-c3nnn[nH]3)c2)cc1
[1]
  pKi: 8.40

## CCCCC(=O)N(Cc1cccc(OC)c1)c1cccc(C(=O)O)c1
[1]
  pKi: 5.10

## C#Cc1cccc(CN(C(=O)CCCC)c2cc(-c3nnn[nH]3)ccc2F)c1
[1]
  pKi: 8.00

## CCC(=O)N(Cc1ccc2c(c1)OCCO2)c1cccc(-c2nnn[nH]2)c1
[1]
  pKi: 7.38

## CCC(=O)N(Cc1ccc(F)cc1)c1cccc(-c2nnn[nH]2)c1
[1]
  pKi: 5.92

## CC(C)CC(=O)N(Cc1ccc(S(C)(=O)=O)cc1)c1cc(F)cc(-c2nnn[nH]2)c1
[7]
  inhibition: 85%
[2]
  pIC50: 5.12
[3]
  pIC50: 5.77
[4]
  microsomal CLint at 1 µM: 17 µL/min/mg
[8]
  pIC50: 7.34
[1]
  pKi: 8.49
[5]
  pIC50: 7.10
[6]
  microsomal CLint at 1 µM: 17 µL/min/mg
[9]
  Emax: inactive

## CCC(=O)N(Cc1cccc(OC)c1)c1cccc(-c2nnn[nH]2)c1
[1]
  pKi: 6.44

## CCC(=O)N(Cc1ccc(S(=O)(=O)C(F)(F)F)cc1)c1cc(F)cc(-c2nnn[nH]2)c1
[1]
  pKi: 8.28

## CCCCC(=O)N(Cc1cccc(OC)c1)c1cc(F)cc(-c2nnn[nH]2)c1
[1]
  pKi: 8.52

## CCC(=O)N(Cc1cccc(O)c1)c1cc(F)cc(-c2nnn[nH]2)c1
[7]
  inhibition: 106%
[2]
  pIC50: 5.43
[3]
  pIC50: 5.70
[4]
  microsomal CLint at 1 µM: 10 µL/min/mg
[5]
  pIC50: 6.01
[6]
  microsomal CLint at 1 µM: 55 µL/min/mg
[9]
  Emax: -17%

## CCCCC(=O)N(Cc1ccc2c(c1)OCCO2)c1cccc(CC(=O)O)c1
[1]
  pKi: 5.37

## CCCC(=O)N(Cc1ccc2c(c1)OCCO2)c1cc(-c2nnn[nH]2)ccc1F
[1]
  pKi: 8.31

## CS(=O)(=O)c1ccc(CN(C(=O)c2ccncc2)c2cc(F)cc(-c3nnn[nH]3)c2)cc1
[1]
  pKi: 7.77

Source: ChEMBL document CHEMBL2034935, “Discovery of a Novel Series of CRTH2 (DP2) Receptor Antagonists Devoid of Carboxylic Acids” (ACS Med Chem Lett, 2011)
